Results published in patent US20250289812A1, “COMPOUND FOR TREATING THROMBOTIC DISEASES” (SHANGHAI INSTITUTE OF MATERIA MEDICA, CHINESE ACADEMY OF …, priority 2020, published 2025).

What was measured:
[1] = test system: platelets on solid phase fibrinogen; test: Effect of compound on platelet stretching on solid phase fibrinogen; format: cell-based; details: 1 h, washed platelets, incubated 60 min at 37° C., read-out: Concentration range for compounds that inhibit platelet stretching on fibrinogen
Method: 1. Experimental method: Firstly, 50 μl fibrinogen (0.1M, diluted with pH 8.3 sodium bicarbonate, 20 μg/ml) was added to 96-well plate, and coated overnight at 4° C. After being washed by PBS for 3 times in the morning, sealed with bovine serum albumin (20 mg/ml) at 37° C. for 60 min, then 100 μl of washed platelet suspension was taken, and added into compounds in each group to make the final concentration 250 μM, and incubated at 37° C. for 60 min. 50 μl of incubated platelets were added to 96-well plate, adhered in a temperature box at 37° C. for 60 min, unadhered platelets were removed by PBS washing for 3 times, and adhered platelets were stably fixed with 4% paraformaldehyde, and washed with PBS for 3 times. Then the platelet membrane was perforated with 0.5% Triton X-100, and then the platelet was stained with 0.5 μg/ml phalloidin-rhodamine for 60 min at 37° C. and washed 3 times (10 min each) with PBS.
2. Experimental results and conclusions: The concentration of different compounds on platelet stretching on fibrinogen was shown in Table 3, and the inhibitory effect of some compounds on platelet stretching was shown in FIG. 2.

[2] = biological target: Src kinase SH3 domain protein (Homo sapiens (Human), UniProt P12931); test: Surface plasmon resonance (SPR) determination of dissociation constants with SH3 protein; format: binding; details: SH3 protein coupled to CM5 chip
Src kinase SH3 domain protein, sequence (P12931 whole entry, looked up, the tested form may be a part): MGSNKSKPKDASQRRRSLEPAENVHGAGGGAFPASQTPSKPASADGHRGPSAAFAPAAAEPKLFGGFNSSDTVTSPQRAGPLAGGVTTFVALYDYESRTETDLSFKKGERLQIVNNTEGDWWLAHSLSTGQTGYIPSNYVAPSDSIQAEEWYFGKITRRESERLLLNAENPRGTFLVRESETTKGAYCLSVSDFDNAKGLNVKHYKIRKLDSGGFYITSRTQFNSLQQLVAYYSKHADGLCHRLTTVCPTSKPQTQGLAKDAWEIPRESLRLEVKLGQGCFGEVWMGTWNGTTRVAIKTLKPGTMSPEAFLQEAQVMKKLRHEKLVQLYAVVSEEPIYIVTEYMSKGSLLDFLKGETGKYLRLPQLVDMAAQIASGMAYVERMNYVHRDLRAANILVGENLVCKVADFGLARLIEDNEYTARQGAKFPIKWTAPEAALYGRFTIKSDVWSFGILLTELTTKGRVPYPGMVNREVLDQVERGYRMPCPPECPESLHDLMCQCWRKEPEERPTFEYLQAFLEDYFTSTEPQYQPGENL
Method: 1. Experimental method: Surface plasmon resonance test was carried out on BIACORE T200 instrument (GE Company). Fresh purified grade Src kinase SH3 domain protein (concentration 2 mg/ml) was diluted to 0.1 mg/ml with 10 mM CH3COONa (pH 4.2) and then SH3 protein was coupled to the CM5 chip by standard amino coupling methods. The compounds of the invention were diluted in a gradient using a buffer solution (20 mM Tris-HCl, PH 8.0, 100 mM NaCl) for 60 seconds and dissociated for 120 seconds at a flow rate of […], respectively. The changes in response values over time were recorded and analyzed by the BIA Evaluation Software (GE Healthcare) program to obtain the dissociation constants KD for the different compounds with SH3 protein.
2. Experimental results and conclusions: The dissociation constants KD of different compounds and SH3 protein were described in Table 2, and the surface plasmon resonance (SPR) experimental results of some compounds were shown in FIG. 1.

Row | SMILES | Kd [2] [nM] | minimal effective concentration [1] [µM]
1 | CCOC(=O)c1c(CNC(=N)N)n(C)c2cc(-c3cncc4ccccc34)ccc12 [SYY-C073] | < 1000 | 10 to 100
2 | CCOC(=O)c1c(CNC(=N)N)n(C)c2cc(-c3cccc4cnccc34)ccc12 [SYY-C074] | 10000 to 100000 | 10 to 100
3 | CCOC(=O)c1c(CNC(=N)N)n(C)c2cc(-c3cccc4cccnc34)ccc12 [SYY-C075] | < 1000 | 10 to 100
4 | CCOC(=O)c1c(CNC(=N)N)n(C)c2cc(-c3ccc(F)c4ccccc34)ccc12 [SYY-C076] | 1000 to 10000 | 100 to 250
5 | CCOC(=O)c1c(CNC(=N)N)n(C)c2cc(-c3cccc4ccncc34)ccc12 [SYY-C077] | < 1000 | 10 to 100
6 | CCOC(=O)c1c(CNC(=N)N)n(C)c2cc(-c3c4ccccc4cc4ccccc34)ccc12 [SYY-C078] | < 1000 | 10 to 100
7 | CCOC(=O)c1c(CNC(=N)N)n(C(C)C)c2cc(-c3cccc4ccccc34)ccc12 [SYY-C079] | < 1000 | 10 to 100
8 | CCOC(=O)c1c(CNC(=N)N)n(C)c2cc(-c3cccc4cc(C)ccc34)ccc12 [SYY-C080] | < 1000 | 10 to 100
9 | CCOC(=O)c1c(CNC(=N)N)n(C)c2cc(-c3cccc4c(C)cccc34)ccc12 [SYY-C081] | < 1000 | 10 to 100
10 | CCOC(=O)c1c(CNC(=N)N)n(-c2ccccc2)c2cc(-c3cccc4ccccc34)ccc12 [SYY-C082] | < 1000 | 10 to 100
11 | CCOC(=O)c1c(CNC(=N)N)n(C)c2cc(-c3ccc(Cl)c4ccccc34)ccc12 [SYY-C083] | 1000 to 10000 | 100 to 250
12 | CCOC(=O)c1c(CNC(=N)N)n(C)c2cc(-c3cccc4c(Cl)cccc34)ccc12 [SYY-C084] | < 1000 | 10 to 100
13 | CCOC(=O)c1c(CNC(=N)N)n(C)c2cc(-c3cc(C)cc4ccccc34)ccc12 [SYY-C085] | < 1000 | 10 to 100
14 | CCOC(=O)c1c(CNC(=N)N)n(C)c2cc(C3=CCOc4ccccc43)ccc12 [SYY-C086] | < 1000 | 10 to 100
15 | CCOC(=O)c1c(CNC(=N)N)n(C)c2cc(-c3cccc4ccc(C)cc34)ccc12 [SYY-C087] | 10000 to 100000 | 100 to 250
16 | CCOC(=O)c1c(CNC(=N)N)n(C)c2cc(-c3c4c(cc5c3CCCC5)CCCC4)ccc12 [SYY-C088] | 10000 to 100000 | 100 to 250
17 | CCOC(=O)c1c(CNC(=N)N)n(C)c2cc(-c3cccc4c(F)cccc34)ccc12 [SYY-C089] | < 1000 | 10 to 100
18 | CCOC(=O)c1c(CNC(=N)N)n(C)c2cc(-c3cc(Cl)cc4ccccc34)ccc12 [SYY-C090] | 1000 to 10000 | 100 to 250
19 | CCOC(=O)c1c(CNC(=N)N)n(C)c2cc(-c3cccc4cccc(C)c34)ccc12 [SYY-C091] | < 1000 | 10 to 100
20 | CCOC(=O)c1c(CNC(=N)N)n(C)c2cc(-c3cc(F)cc4ccccc34)ccc12 [SYY-C092] | 10000 to 100000 | 100 to 250
21 | CCOC(=O)c1c(CNC(=N)N)n(C)c2cc(-c3cccc4cc(Cl)ccc34)ccc12 [SYY-C093] | < 1000 | 10 to 100
22 | CCOC(=O)c1c(CNC(=N)N)n(C)c2cc(-c3cccc4cccc(Cl)c34)ccc12 [SYY-C095] | 10000 to 100000 | 10 to 100
23 | CCOC(=O)c1c(CNC(=N)N)n(C)c2cc(-c3cccc4cccc(F)c34)ccc12 [SYY-C096] | < 1000 | 10 to 100
24 | CCOC(=O)c1c(CNC(=N)N)n(C)c2cc(-c3cccc4ccc(F)cc34)ccc12 [SYY-C097] | 10000 to 100000 | 10 to 100
25 | CCOC(=O)c1c(CNC(=N)N)n(C)c2cc(-c3cccc4cc(F)ccc34)ccc12 [SYY-C098] | < 1000 | 10 to 100
26 | CNC(=O)c1c(CNC(=N)N)n(C)c2cc(-c3cccc4ccccc34)ccc12 [SYY-C099] | < 1000 | 10 to 100
27 | CN(C)C(=O)c1c(CNC(=N)N)n(C)c2cc(-c3cccc4ccccc34)ccc12 [SYY-C100] | 1000 to 10000 | 100 to 250
28 | Cn1c(CNC(=N)N)c(C(N)=O)c2ccc(-c3cccc4ccccc34)cc21 [SYY-C101] | < 1000 | 10 to 100
29 | Cn1c(CNC(=N)N)c(C#N)c2ccc(-c3cccc4ccccc34)cc21 [SYY-C102] | < 1000 | 10 to 100

More lines, main results first:

Row | Kd [2] [nM] | SMILES | minimal effective concentration [1] [µM]
30 | 1000 to 10000 | CCOC(=O)c1c(CNC(=N)N)n(C)c2cc(-c3cccc4ccccc34)c(OC)cc12 [SYY-C103] | 100 to 250
31 | < 1000 | CCOC(=O)c1c(CNC(=N)N)n(C)c2cc(-c3cccc4ccccc34)c(Cl)cc12 [SYY-C104] | 10 to 100
32 | < 1000 | CC(=O)Nc1c(CNC(=N)N)n(C)c2cc(-c3cccc4ccccc34)ccc12 [SYY-C105] | 10 to 100
33 | 1000 to 10000 | CCOC(=O)c1c(CNC(=N)N)oc2cc(-c3cccc4ccccc34)ccc12 [SYY-C106] | 100 to 250
34 | < 1000 | CCOC(=O)c1c(CNC(=N)N)sc2ccc(-c3cccc4ccccc34)cc12 [SYY-C107] | 10 to 100
35 | 10000 to 100000 | CCOC(=O)c1c(CNC(=N)N)sc2cc(-c3cccc4ccccc34)ccc12 [SYY-C108] | 100 to 250
36 | < 1000 | CCOC(=O)c1c(CNC(=N)N)n(C)c2cc(-c3cccc4ccccc34)c(Br)cc12 [SYY-C109] | 10 to 100
37 | < 1000 | CCOC(=O)c1c(CNC(=N)N)n(C)c2cc(-c3cccc4ccccc34)c(OC3CCCC3)cc12 [SYY-C110] | 10 to 100
38 | 1000 to 10000 | CCOC(=O)c1c(CNC(=N)N)n(C)c2cc(-c3cccc4ccccc34)c(C3=CCCC3)cc12 [SYY-C111] | 100 to 250
39 | < 1000 | CCOC(=O)c1c(CNC(=N)N)n(C)c2cc(-c3cccc4ccccc34)c(C3CC3)cc12 [SYY-C112] | 10 to 100
40 | < 1000 | CCOC(=O)c1c(CNC(=N)N)n(C)c2cc(-c3cccc4ccccc34)c(C3CCCC3)cc12 [SYY-C113] | 10 to 100
41 | 10000 to 100000 | CCOC(=O)c1c(CNC(=N)N)n(C)c2cc(OC)c(-c3cccc4ccccc34)cc12 [SYY-C114] | 10 to 100
42 | < 1000 | CCOC(=O)c1c(CNC(=N)N)n(C)c2cc(OC3CCCC3)c(-c3cccc4ccccc34)cc12 [SYY-C115] | 10 to 100
43 | < 1000 | CCOC(=O)c1c(CNC(=N)N)n(C)c2cc(C3=CCCC3)c(-c3cccc4ccccc34)cc12 [SYY-C116] | 10 to 100
44 | 10000 to 100000 | CCOC(=O)c1c(CNC(=N)N)n(C)c2cc(C3CCCC3)c(-c3cccc4ccccc34)cc12 [SYY-C117] | 100 to 250
45 | < 1000 | CCOC(=O)c1c(CNC(=N)N)n(C)c2cc(Cl)c(-c3cccc4ccccc34)cc12 [SYY-C118] | 10 to 100
46 | < 1000 | CCOC(=O)c1c(CNC(=N)N)n(C)c2cc(Br)c(-c3cccc4ccccc34)cc12 [SYY-C119] | 10 to 100
47 | < 1000 | CCOC(=O)c1c(CNC(=N)N)n(C)c2cc(C3CC3)c(-c3cccc4ccccc34)cc12 [SYY-C120] | 10 to 100
